Read-outs that look alike come from different tables or passages of the source.
Experiment: Solubility screening of Formula (I) in crystallization solvents at RT and 50° C. (TABLE 3)
Type: physicochemical
Settings: for solubility: thermodynamic from solid
Method: This example covers crystallization of Formula (I) in multiple solvent systems. Solvents were selected to span a range of polarities, functionalities, and classifications according to the International Conference on Harmonization (ICH) with preferences given to class II and class III solvents. […] After each addition of solvent, the vials were shaken and visually inspected for residual solids. If required, heating to 50° C. or heated to reflux (for low boiling point solvents) for approximately two minutes was performed to ensure complete dissolution. If residual solids remained, additional solvent aliquots were added. The solvent addition was discontinued when complete dissolution was achieved. […]

SMILES: CC[C@H](C)C(=O)N1CCC(NC(=O)Nc2ccc(OC(F)(F)F)c(F)c2)CC1 [Formula (I), (S)-1-(3-fluoro-4-(trifluoromethoxy)phenyl)-3-(1-(2-methylbutanoyl)piperidin-4-yl)urea]
- Soluble? (2-MeTHF, RT, Vol 0.2 mL): Yes
- solubility (2-butanone (MEK), organic solvent or mixture, MEK, RT, read-out: Nominal Solubility): 50.4 mg/mL
- solubility (2-butanone (MEK), organic solvent or mixture, MEK, RT, read-out: Solubility Range): ≥ 50.4 mg/mL
- solubility (2-methyltetrahydrofuran (2-MeTHF), organic solvent or mixture, 2-MeTHF, RT, read-out: Nominal Solubility): 25.2 mg/mL
- solubility (2-methyltetrahydrofuran (2-MeTHF), organic solvent or mixture, 2-MeTHF, RT, read-out: Solubility Range): 25.2 to 50.4 mg/mL
- Soluble? (ACN, RT, Vol 0.1 mL): Yes
- Soluble? (Acetone, RT, Vol 0.1 mL): Yes
- Soluble? (DCM, RT, Vol 0.1 mL): Yes
- solubility (DMF, organic solvent or mixture, DMF, RT, read-out: Nominal Solubility): 46.1 mg/mL
- solubility (DMF, organic solvent or mixture, DMF, RT, read-out: Solubility Range): ≥ 46.1 mg/mL
- Soluble? (DMF, RT, Vol 0.1 mL): Yes
- solubility (DMSO, organic solvent or mixture, DMSO, RT, read-out: Nominal Solubility): 47.8 mg/mL
- solubility (DMSO, organic solvent or mixture, DMSO, RT, read-out: Solubility Range): ≥ 47.8 mg/mL
- Soluble? (DMSO, RT, Vol 0.1 mL): Yes
- Soluble? (Dioxane, RT, Vol 0.5 mL): Yes
- Soluble? (EtOAc, RT, Vol 0.1 mL): Yes
- Soluble? (EtOH, RT, Vol 0.1 mL): Yes
- Soluble? (IPA, RT, Vol 0.1 mL): Yes
- Soluble? (IPAC, RT, Vol 0.2 mL): Yes
- Soluble? (MEK, RT, Vol 0.1 mL): Yes
- Soluble? (MIBK, RT, Vol 0.1 mL): Yes
- Soluble? (MTBE, 50° C., Vol 1.0 mL): Yes
- Soluble? (MeOH, RT, Vol 0.1 mL): Yes
- solubility (NMP, organic solvent or mixture, NMP, RT, read-out: Nominal Solubility): 55.2 mg/mL
- solubility (NMP, organic solvent or mixture, NMP, RT, read-out: Solubility Range): ≥ 55.2 mg/mL
- Soluble? (NMP, RT, Vol 0.1 mL): Yes
- Soluble? (THF, RT, Vol 0.1 mL): Yes
- Soluble? (Toluene, 50° C., Vol 0.5 mL): Yes
- Soluble? (Water, 50° C., Vol 4.0 mL): No
- solubility (acetone, organic solvent or mixture, Acetone, RT, read-out: Nominal Solubility): 43.7 mg/mL
- solubility (acetone, organic solvent or mixture, Acetone, RT, read-out: Solubility Range): ≥ 43.7 mg/mL
- solubility (acetonitrile (ACN), organic solvent or mixture, ACN, RT, read-out: Nominal Solubility): 48.3 mg/mL
- solubility (acetonitrile (ACN), organic solvent or mixture, ACN, RT, read-out: Solubility Range): ≥ 48.3 mg/mL
- Soluble? (c-Hexane, 50° C., Vol 4.0 mL): No
- solubility (c-hexane, 50 °C, organic solvent or mixture, c-Hexane, 50° C., read-out: Solubility Range): < 1.17 mg/mL
- solubility (cyclohexane (c-hexane), 50 °C, organic solvent or mixture, c-Hexane, 50° C., read-out: Nominal Solubility): < 1.17 mg/mL
- solubility (dichloromethane (DCM), organic solvent or mixture, DCM, RT, read-out: Nominal Solubility): 46.6 mg/mL
- solubility (dichloromethane (DCM), organic solvent or mixture, DCM, RT, read-out: Solubility Range): ≥ 46.6 mg/mL
- solubility (dioxane, organic solvent or mixture, Dioxane, RT, read-out: Nominal Solubility): 9.36 mg/mL
- solubility (dioxane, organic solvent or mixture, Dioxane, RT, read-out: Solubility Range): 9.36 to 23.4 mg/mL
- solubility (ethanol, organic solvent or mixture, EtOH, RT, read-out: Nominal Solubility): 41.2 mg/mL
- solubility (ethanol, organic solvent or mixture, EtOH, RT, read-out: Solubility Range): ≥ 41.2 mg/mL
- solubility (ethyl acetate (EtOAc), organic solvent or mixture, EtOAc, RT, read-out: Nominal Solubility): 54.3 mg/mL
- solubility (ethyl acetate (EtOAc), organic solvent or mixture, EtOAc, RT, read-out: Solubility Range): ≥ 54.3 mg/mL
- solubility (isopropanol (IPA), organic solvent or mixture, IPA, RT, read-out: Nominal Solubility): 56 mg/mL
- solubility (isopropanol (IPA), organic solvent or mixture, IPA, RT, read-out: Solubility Range): ≥ 56 mg/mL
- solubility (isopropyl acetate (IPAc), organic solvent or mixture, IPAC, RT, read-out: Nominal Solubility): 23.4 mg/mL
- solubility (isopropyl acetate (IPAc), organic solvent or mixture, IPAC, RT, read-out: Solubility Range): 23.4 to 46.7 mg/mL
- solubility (methanol, organic solvent or mixture, MeOH, RT, read-out: Nominal Solubility): 43.2 mg/mL
- solubility (methanol, organic solvent or mixture, MeOH, RT, read-out: Solubility Range): ≥ 43.2 mg/mL
- solubility (methyl isobutyl ketone (MIBK), organic solvent or mixture, MIBK, RT, read-out: Nominal Solubility): 48 mg/mL
- solubility (methyl isobutyl ketone (MIBK), organic solvent or mixture, MIBK, RT, read-out: Solubility Range): ≥ 48 mg/mL
- solubility (methyl tert-butyl ether (MTBE), 50 °C, organic solvent or mixture, MTBE, 50° C., read-out: Nominal Solubility): 5.68 mg/mL
- solubility (methyl tert-butyl ether (MTBE), 50 °C, organic solvent or mixture, MTBE, 50° C., read-out: Solubility Range): 5.68 to 11.4 mg/mL
- Soluble? (n-BuOH, RT, Vol 0.1 mL): Yes
- Soluble? (n-Heptane, 50° C., Vol 4.0 mL): No
- Soluble? (n-Propanol, RT, Vol 0.1 mL): Yes
- solubility (n-butanol (n-BuOH), organic solvent or mixture, n-BuOH, RT, read-out: Nominal Solubility): 42.6 mg/mL
- solubility (n-butanol (n-BuOH), organic solvent or mixture, n-BuOH, RT, read-out: Solubility Range): ≥ 42.6 mg/mL
- solubility (n-heptane, 50 °C, organic solvent or mixture, n-Heptane, 50° C., read-out: Nominal Solubility): < 1.32 mg/mL
- solubility (n-heptane, 50 °C, organic solvent or mixture, n-Heptane, 50° C., read-out: Solubility Range): < 1.32 mg/mL
- solubility (n-propanol, organic solvent or mixture, n-Propanol, RT, read-out: Nominal Solubility): 52.2 mg/mL
- solubility (n-propanol, organic solvent or mixture, n-Propanol, RT, read-out: Solubility Range): ≥ 52.2 mg/mL
- solubility (tetrahydrofuran (THF), organic solvent or mixture, THF, RT, read-out: Nominal Solubility): 48 mg/mL
- solubility (tetrahydrofuran (THF), organic solvent or mixture, THF, RT, read-out: Solubility Range): ≥ 48 mg/mL
- solubility (toluene, 50 °C, organic solvent or mixture, Toluene, 50° C., read-out: Nominal Solubility): 10 mg/mL
- solubility (toluene, 50 °C, organic solvent or mixture, Toluene, 50° C., read-out: Solubility Range): 10 to 25 mg/mL
- solubility (water, 50 °C, water, Water, 50° C., read-out: Nominal Solubility): < 1.36 mg/mL
- solubility (water, 50 °C, water, Water, 50° C., read-out: Solubility Range): < 1.36 mg/mL
